Reference: PubChem BioAssay AID1259407 (Chemical Carcinogenesis Research Information System (CCRIS), 2018)
Calls of active or inactive are those of the source. The rule behind the calls is not given here.

System: CCRIS mutagenicity, Ames/micronucleus/aberration tests
Assay: CCRIS mutagenicity studies
[1] = Test System: AMES SALMONELLA TYPHIMURIUM, Strain/Indicator: TA98, Metabolic Activation: NONE, Method: STANDARD PLATE
[2] = Test System: AMES SALMONELLA TYPHIMURIUM, Strain/Indicator: TA98, Metabolic Activation: S-9, Method: STANDARD PLATE
[3] = Test System: AMES SALMONELLA TYPHIMURIUM, Strain/Indicator: TA100, Metabolic Activation: NONE, Method: STANDARD PLATE
[4] = Test System: AMES SALMONELLA TYPHIMURIUM, Strain/Indicator: TA100, Metabolic Activation: S-9, Method: STANDARD PLATE

Structure (SMILES): N#Cc1ccc(/C=C\c2ccc([N+](=O)[O-])cc2)cc1
- mutagenic call (Test System: AMES SALMONELLA TYPHIMURIUM, Strain/Indicator: TA98 (NR), Metabolic Activation: NONE, Method: STANDARD PLATE): active; positive
- mutagenic call (Test System: AMES SALMONELLA TYPHIMURIUM, Strain/Indicator: TA98 (NR), Metabolic Activation: S-9, Method: STANDARD PLATE): active; positive
- mutagenic call [1]: active; positive
- mutagenic call [2]: active; positive
- mutagenic call (Test System: AMES SALMONELLA TYPHIMURIUM, Strain/Indicator: TA100 (NR), Metabolic Activation: NONE, Method: STANDARD PLATE): inactive; negative
- mutagenic call (Test System: AMES SALMONELLA TYPHIMURIUM, Strain/Indicator: TA100 (NR), Metabolic Activation: S-9, Method: STANDARD PLATE): inactive; negative
- mutagenic call [3]: active; positive
- mutagenic call [4]: active; positive

Structure (SMILES): Cc1c2c(c(CO)c3ccc4ccccc4c13)[C@H](O)[C@@H](O)C=C2
- mutagenic call (Test System: CHINESE HAMSTER V-79, Strain/Indicator: V-79/6-THIOGUANINE, Metabolic Activation: CELL-MEDIATED, Method: STANDARD PLATE): active; positive
- mutagenic call (Test System: CHINESE HAMSTER V-79, Strain/Indicator: V-79/OUABAIN, Metabolic Activation: CELL-MEDIATED, Method: STANDARD PLATE): active; positive

Structure (SMILES): CC(C)CN(C(=O)CCCl)c1snc2ccccc12
- mutagenic call [1]: inactive; negative
- mutagenic call [2]: inactive; negative
- mutagenic call [3]: inactive; negative
- mutagenic call [4]: inactive; negative
- mutagenic call (Test System: AMES SALMONELLA TYPHIMURIUM, Strain/Indicator: TA1535, Metabolic Activation: NONE, Method: STANDARD PLATE): inactive; negative
- mutagenic call (Test System: AMES SALMONELLA TYPHIMURIUM, Strain/Indicator: TA1535, Metabolic Activation: S-9, Method: STANDARD PLATE): inactive; negative
- mutagenic call (Test System: AMES SALMONELLA TYPHIMURIUM, Strain/Indicator: TA1537, Metabolic Activation: NONE, Method: STANDARD PLATE): inactive; negative
- mutagenic call (Test System: AMES SALMONELLA TYPHIMURIUM, Strain/Indicator: TA1537, Metabolic Activation: S-9, Method: STANDARD PLATE): inactive; negative

Structure (SMILES): CC(CCl)OP(=O)(OC(C)CCl)OC(C)CCl (stereo unspecified)
- mutagenic call (Test System: AMES SALMONELLA TYPHIMURIUM, Strain/Indicator: TA97, Metabolic Activation: HAMSTER, LIVER, S-9, AROCLOR 1254 (10%), Method: PREINCUBATION): inactive; negative
- mutagenic call (Test System: AMES SALMONELLA TYPHIMURIUM, Strain/Indicator: TA97, Metabolic Activation: HAMSTER, LIVER, S-9, AROCLOR 1254 (30%), Method: PREINCUBATION): inactive; negative
- mutagenic call (Test System: AMES SALMONELLA TYPHIMURIUM, Strain/Indicator: TA97, Metabolic Activation: NONE, Method: PREINCUBATION): inactive; negative
- mutagenic call (Test System: AMES SALMONELLA TYPHIMURIUM, Strain/Indicator: TA97, Metabolic Activation: RAT, LIVER, S-9, AROCLOR 1254 (10%), Method: PREINCUBATION): inactive; negative
- mutagenic call (Test System: AMES SALMONELLA TYPHIMURIUM, Strain/Indicator: TA97, Metabolic Activation: RAT, LIVER, S-9, AROCLOR 1254 (30%), Method: PREINCUBATION): inactive; negative
- mutagenic call (Test System: AMES SALMONELLA TYPHIMURIUM, Strain/Indicator: TA98, Metabolic Activation: HAMSTER, LIVER, S-9, AROCLOR 1254 (10%), Method: PREINCUBATION): inactive; negative
- mutagenic call (Test System: AMES SALMONELLA TYPHIMURIUM, Strain/Indicator: TA98, Metabolic Activation: HAMSTER, LIVER, S-9, AROCLOR 1254 (30%), Method: PREINCUBATION): inactive; negative
- mutagenic call (Test System: AMES SALMONELLA TYPHIMURIUM, Strain/Indicator: TA98, Metabolic Activation: NONE, Method: PREINCUBATION): inactive; negative
- mutagenic call (Test System: AMES SALMONELLA TYPHIMURIUM, Strain/Indicator: TA98, Metabolic Activation: RAT, LIVER, S-9, AROCLOR 1254 (10%), Method: PREINCUBATION): inactive; negative
- mutagenic call (Test System: AMES SALMONELLA TYPHIMURIUM, Strain/Indicator: TA98, Metabolic Activation: RAT, LIVER, S-9, AROCLOR 1254 (30%), Method: PREINCUBATION): inactive; negative
- mutagenic call (Test System: AMES SALMONELLA TYPHIMURIUM, Strain/Indicator: TA100, Metabolic Activation: HAMSTER, LIVER, S-9, AROCLOR 1254 (10%), Method: PREINCUBATION): inactive; negative
- mutagenic call (Test System: AMES SALMONELLA TYPHIMURIUM, Strain/Indicator: TA100, Metabolic Activation: HAMSTER, LIVER, S-9, AROCLOR 1254 (30%), Method: PREINCUBATION): inactive; negative
- mutagenic call (Test System: AMES SALMONELLA TYPHIMURIUM, Strain/Indicator: TA100, Metabolic Activation: NONE, Method: PREINCUBATION): inactive; negative
- mutagenic call (Test System: AMES SALMONELLA TYPHIMURIUM, Strain/Indicator: TA100, Metabolic Activation: RAT, LIVER, S-9, AROCLOR 1254 (10%), Method: PREINCUBATION): inactive; negative
- mutagenic call (Test System: AMES SALMONELLA TYPHIMURIUM, Strain/Indicator: TA100, Metabolic Activation: RAT, LIVER, S-9, AROCLOR 1254 (30%), Method: PREINCUBATION): inactive; negative
- mutagenic call (Test System: AMES SALMONELLA TYPHIMURIUM, Strain/Indicator: TA1535, Metabolic Activation: HAMSTER, LIVER, S-9, AROCLOR 1254 (10%), Method: PREINCUBATION): inactive; negative
- mutagenic call (Test System: AMES SALMONELLA TYPHIMURIUM, Strain/Indicator: TA1535, Metabolic Activation: HAMSTER, LIVER, S-9, AROCLOR 1254 (30%), Method: PREINCUBATION): inactive; negative
- mutagenic call (Test System: AMES SALMONELLA TYPHIMURIUM, Strain/Indicator: TA1535, Metabolic Activation: NONE, Method: PREINCUBATION): inactive; negative
- mutagenic call (Test System: AMES SALMONELLA TYPHIMURIUM, Strain/Indicator: TA1535, Metabolic Activation: RAT, LIVER, S-9, AROCLOR 1254 (5 OR 30%), Method: PREINCUBATION): inactive; negative
- mutagenic call (Test System: AMES SALMONELLA TYPHIMURIUM, Strain/Indicator: TA1535, Metabolic Activation: RAT, LIVER, S-9, AROCLOR 1254 (10%), Method: PREINCUBATION): inactive; negative
- mutagenic call (Test System: AMES SALMONELLA TYPHIMURIUM, Strain/Indicator: TA1537, Metabolic Activation: HAMSTER, LIVER, S-9, AROCLOR 1254 (30%), Method: PREINCUBATION): inactive; negative
- mutagenic call (Test System: AMES SALMONELLA TYPHIMURIUM, Strain/Indicator: TA1537, Metabolic Activation: NONE, Method: PREINCUBATION): inactive; negative
- mutagenic call (Test System: AMES SALMONELLA TYPHIMURIUM, Strain/Indicator: TA1537, Metabolic Activation: RAT, LIVER, S-9, AROCLOR 1254 (30%), Method: PREINCUBATION): inactive; negative
